Among the test systems are NCI-H23; Malme-3M; RPMI-8226; SNB-75; NCI-H522; SF-539; HL-60; UACC-62; SN12C; IGROV-1; HCC 2998; EKVX; HOP-92; MDA-MB-231; NCI/ADR-RES; MDA-N; HOP-62; DU-145; BT-549.
What all share (test): NCI tumour cell line growth inhibition, 48 h

Molecules are shown by their SMILES.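 Cells were grown in 96-well plates and exposed to each compound for 48 hours at five concentrations; endpoints were interpolated linearly between bracketing concentrations, or set to the highest concentration if not reached. The concentration for 50% growth inhibition is given as GI50.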 The source made the active and inactive calls. Cut-off read from the data, not from the text of the source: active = GI50 up to about 1.1 µM and inactive = higher.

For the compound `NNC(=S)N/N=C(/C(=O)Nc1ccc([N+](=O)[O-])cc1)c1nc2ccc([N+](=O)[O-])cc2nc1O`, the GI50 was > 100 µM (inactive) with NCI-H23; > 100 µM (inactive) in the assay with Malme-3M; > 100 µM (inactive) in the assay on RPMI-8226; > 100 µM (inactive) in the assay on SNB-75; 36.5 µM (inactive) in the assay on NCI-H522; > 100 µM (inactive) with SF-539. In addition, the GI50 with HL-60 is 52.8 µM (inactive); in the assay on UACC-62 it was > 100 µM (inactive); in the assay with SN12C, > 100 µM (inactive); with IGROV-1 it was > 100 µM (inactive); in the assay with HCC 2998, > 100 µM (inactive); in the assay on EKVX, > 100 µM (inactive). The GI50 in the assay on HOP-92 is > 100 µM (inactive).

`Cc1cc(NS(=O)(=O)c2ccc(/N=N/c3c(Nc4ccccc4)nn(-c4ccc(S(=O)(=O)Nc5ccncn5)cc4)c3C)cc2)no1`: the GI50 in the assay on NCI-H23, in the assay with Malme-3M, with SNB-75, with MDA-MB-231, in the assay with NCI/ADR-RES and with NCI-H522 was > 100 µM (inactive) throughout. Also, the GI50 in the assay on SF-539, in the assay on UACC-62, in the assay with SN12C, in the assay on MDA-N, in the assay with HOP-62 and in the assay with IGROV-1 was > 100 µM (inactive) throughout. Further, the GI50 in the assay with HCC 2998, in the assay on EKVX, in the assay with HOP-92 and in the assay on DU-145 was > 100 µM (inactive) in each case.

Regarding `O=C(NNc1nc(-c2ccccc2)cs1)C(F)(F)F`, the GI50 in the assay with NCI-H23 is 34 µM (inactive); in the assay on Malme-3M it was 53.7 µM (inactive); in the assay with RPMI-8226 it was 16.4 µM (inactive); in the assay on SNB-75 it was 19 µM (inactive); in the assay with MDA-MB-231, 68.7 µM (inactive); in the assay with NCI/ADR-RES, 29.9 µM (inactive). Also, the GI50 in the assay with NCI-H522 is 35.7 µM (inactive); in the assay with HL-60, 33.1 µM (inactive); in the assay on UACC-62, 58.7 µM (inactive); in the assay with SN12C it was 75.7 µM (inactive); in the assay on HOP-62, 33.2 µM (inactive); with IGROV-1 it was 20.2 µM (inactive). Further, the GI50 with HCC 2998 was 95.1 µM (inactive); with EKVX, 98.9 µM (inactive); in the assay on DU-145 it was 53.1 µM (inactive).

Consider `CCNC(=O)NNc1ncnc2c1c(-c1ccc(Cl)cc1)cn2-c1ccc(C)cc1`, for which the GI50 with NCI-H23 was 24.6 µM (inactive); with Malme-3M, 18.8 µM (inactive); in the assay with SNB-75, 16.7 µM (inactive); with MDA-MB-231, 19.6 µM (inactive); with NCI/ADR-RES, 20 µM (inactive); in the assay with NCI-H522 it was 17.9 µM (inactive). Further, the GI50 in the assay with SF-539 is 16.7 µM (inactive); in the assay on HL-60 it was 16 µM (inactive); in the assay with UACC-62 it was 15.3 µM (inactive); with SN12C, 16.5 µM (inactive); in the assay with MDA-N, 19.8 µM (inactive); in the assay on HOP-62, 20.4 µM (inactive). The GI50 was 20.5 µM (inactive) in the assay on IGROV-1; 17.5 µM (inactive) in the assay on HCC 2998; 20.2 µM (inactive) in the assay on EKVX; 18.2 µM (inactive) in the assay with HOP-92; 21.5 µM (inactive) with DU-145.

On to `COc1ccc(-n2cnn3c(=O)c4cn[nH]c4nc23)cc1`, for which the GI50 with NCI-H23 was > 10 µM (inactive); with Malme-3M it was > 10 µM (inactive); with SNB-75, > 10 µM (inactive); in the assay with MDA-MB-231, 0.00724 µM (active); in the assay with NCI-H522, > 10 µM (inactive); with SF-539, > 10 µM (inactive). The GI50 is > 10 µM (inactive) in the assay with HL-60; > 10 µM (inactive) with SN12C; > 10 µM (inactive) in the assay on BT-549; > 10 µM (inactive) in the assay with HCC 2998; > 10 µM (inactive) in the assay with EKVX; 0.748 µM (active) in the assay with HOP-92. Besides, in the assay with DU-145, the GI50 was > 10 µM (inactive).

In the case of `CC1(C)N=c2c(ncn2N)=C(C(N)=O)N1`, the GI50 with NCI-H23, with Malme-3M, with RPMI-8226, in the assay with SNB-75, in the assay on MDA-MB-231 and in the assay on NCI/ADR-RES was > 100 µM (inactive) in each case. Moreover, the GI50 with NCI-H522, in the assay with SF-539, in the assay on HL-60, in the assay on UACC-62, in the assay with SN12C and with MDA-N was > 100 µM (inactive) throughout. Besides, the GI50 in the assay on HOP-62 is > 100 µM (inactive); in the assay on IGROV-1, > 100 µM (inactive); in the assay with HCC 2998, > 100 µM (inactive); in the assay with EKVX, > 100 µM (inactive); in the assay with HOP-92, 22.3 µM (inactive); in the assay on DU-145 it was > 100 µM (inactive).

With `Cc1nc(N)c(N2CCN(S(N)(=O)=O)CC2)c(O)n1`, the GI50 with NCI-H23, with Malme-3M, in the assay on RPMI-8226, in the assay on SNB-75, with MDA-MB-231 and in the assay on NCI/ADR-RES was > 100 µM (inactive) each time. Moreover, the GI50 in the assay on NCI-H522, with SF-539, with HL-60, in the assay with SN12C, in the assay on HOP-62 and in the assay on BT-549 was > 100 µM (inactive) each time. For the same compound, the GI50 with HCC 2998, with EKVX and with DU-145 was > 100 µM (inactive) in each case.

In the case of `Cc1cc(S(=O)(=O)O)c(NC(=O)C(=O)Cc2cc(=O)oc3cc(O)ccc23)cc1Cl`, the GI50 with NCI-H23, in the assay on Malme-3M, in the assay with SNB-75, in the assay with NCI-H522, in the assay on SF-539 and in the assay with HL-60 was > 100 µM (inactive) throughout. The GI50 in the assay with UACC-62, with SN12C, with HOP-62, with IGROV-1, in the assay on HCC 2998 and in the assay with EKVX was > 100 µM (inactive) each time. Further, the GI50 in the assay on HOP-92 was > 100 µM (inactive).

`O=C1/C(=C/c2ccccc2O)N=C(c2ccccc2)N1c1nc2ccccc2s1`: the GI50 in the assay on NCI-H23 is 11.1 µM (inactive); in the assay with RPMI-8226, 19.1 µM (inactive); with SNB-75 it was 21.4 µM (inactive); in the assay on MDA-MB-231 it was 18.3 µM (inactive); in the assay with NCI/ADR-RES, 14.5 µM (inactive); with NCI-H522, 4.06 µM (inactive). The GI50 in the assay on SF-539 is 20.7 µM (inactive); in the assay with HL-60, 1.21 µM (inactive); in the assay on MDA-N, 2.51 µM (inactive); in the assay on HOP-62, 18.6 µM (inactive); with IGROV-1, 15.6 µM (inactive); in the assay on HCC 2998, 13.7 µM (inactive). For the same compound, the GI50 was 24.5 µM (inactive) with EKVX, 29.9 µM (inactive) in the assay on HOP-92 and 27.3 µM (inactive) with DU-145.

For the compound `COc1ccc(/C(Cl)=C(\CNc2ccccn2)c2ccccc2)cc1OC`, the GI50 in the assay on NCI-H23, in the assay with Malme-3M, in the assay with RPMI-8226, with SNB-75, in the assay on MDA-MB-231 and in the assay with NCI/ADR-RES was > 100 µM (inactive) each time. Besides, the GI50 is 99.8 µM (inactive) in the assay on NCI-H522; > 100 µM (inactive) with SF-539; > 100 µM (inactive) in the assay on HL-60; > 100 µM (inactive) in the assay with UACC-62; > 100 µM (inactive) with SN12C; > 100 µM (inactive) with MDA-N. Further, the GI50 in the assay with HOP-62, with IGROV-1, with HCC 2998, in the assay with EKVX, in the assay with HOP-92 and in the assay with DU-145 was > 100 µM (inactive) throughout.

In the case of `COc1ccc(/C=C2\C(=O)N(C(=O)Cc3ccccc3)N=C2C)cc1OC`, the GI50 with NCI-H23, with Malme-3M, in the assay with RPMI-8226, in the assay on SNB-75, in the assay with NCI-H522 and with SF-539 was > 100 µM (inactive) throughout. Moreover, the GI50 in the assay on HL-60, in the assay on SN12C, in the assay with HOP-62, in the assay with HCC 2998 and in the assay on EKVX was > 100 µM (inactive) throughout.

`CN(C)c1ccc(/N=C2/NC(=N\c3ccccc3)/C(=N/c3ccccc3)S2)cc1`: the GI50 in the assay on NCI-H23 was > 100 µM (inactive); in the assay with Malme-3M it was > 100 µM (inactive); with SNB-75, 27.2 µM (inactive); in the assay with MDA-MB-231, > 100 µM (inactive); in the assay on NCI/ADR-RES it was > 100 µM (inactive); in the assay with NCI-H522, 5.64 µM (inactive). Moreover, the GI50 in the assay with SF-539 is > 100 µM (inactive); with HL-60, > 100 µM (inactive); with UACC-62, 51.2 µM (inactive); with SN12C it was > 100 µM (inactive); with MDA-N it was > 100 µM (inactive); with HOP-62 it was 41.6 µM (inactive). For the same compound, the GI50 in the assay with IGROV-1, in the assay with HCC 2998, in the assay on EKVX, in the assay with HOP-92 and with DU-145 was > 100 µM (inactive) each time.

As to `CCc1cc2c(cc1O)CC[C@@H]1[C@@H]2CC[C@]2(C)[C@@H](O)CC[C@@H]12`, the GI50 in the assay with NCI-H23 is 7.14 µM (inactive); in the assay on Malme-3M, 2.97 µM (inactive); in the assay on SNB-75, 1.9 µM (inactive); in the assay on MDA-MB-231, 7.93 µM (inactive); with NCI/ADR-RES it was 3.66 µM (inactive); with NCI-H522, 8.81 µM (inactive). The GI50 is 3.02 µM (inactive) with HL-60; > 10 µM (inactive) in the assay on UACC-62; 2.07 µM (inactive) with MDA-N; 6.14 µM (inactive) in the assay on HOP-62; 11.2 µM (inactive) in the assay with IGROV-1; 10.2 µM (inactive) in the assay on HCC 2998. The GI50 in the assay on EKVX is 9.71 µM (inactive).
